Assay results published in patent US20050209256A1, “Novel beta-turn mimetics as calcitonin gene related peptide receptor antagonists” (priority 2004, published 2005).

Each molecule was assayed against T1, human CGRP receptor (Homo sapiens, UniProt O60894+Q16602) (assay: Radioligand binding assay, [125I]-CGRP competition on SK-N-MC cell homogenates). Conditions: Binding data, [125I]-CGRP 40 pM, room temperature.
T1 construct: SK-N-MC cells that endogenously express the human CGRP receptor; endogenous in cells; host or cells: SK-N-MC cells (membrane homogenates)
Experimental: Tissue culture. SK-N-MC cells were grown at 37° C. in 5% CO2 as a monolayer in medium consisting of MEM with Earle's salts and L-glutamine (Gibco) supplemented with 10% fetal bovine serum (Gibco).
Radioligand binding assays. Cells were rinsed twice with phosphate-buffered saline (155 mM NaCl, 3.3 mM Na2HPO4, 1.1 mM KH2PO4, pH 7.4), and incubated for 5-10 min. at 4° C. in hypotonic lysis buffer consisting of 10 mM Tris (pH 7.4) and 5 mM EDTA. Cells were transferred from plates to polypropylene tubes (16×100 mm), homogenized and centrifuged at 32,000×g for 30 min. Pellets were resuspended in buffer consisting of 50 mM Tris (pH 7.4) and 1 mM EDTA, homogenized, and centrifuged again at 32,000×g for 30 min. Pellets were resuspended in 100 mM Tris-Cl pH 7.5, 10 mM MgCl2, 0.1% mammalian protease inhibitor cocktail (Sigma) and stored at −80° C. until needed. On the day of an experiment, homogenates were thawed and homogenized again. Binding of [^125I]-CGRP (NEN) was carried out in buffer containing 50 mM Tris-Cl pH 7.5, 5 mM MgCl2, 0.5% BSA. Homogenates (3.5 μg protein/well) were incubated with competitor compounds (solubilized in 100% DMSO at 100× their final assay concentrations) for one hour at room temperature. Then [^125I]-CGRP was added (40 pM final concentration) and the reaction incubated for one additional hour at room temperature. Assays were stopped by addition of cold wash buffer (20 mM Tris-Cl pH 7.5, 0.1% BSA) immediately followed by filtration over glass fiber filters (Whatman GF/B) previously soaked in 0.5% PEI. Non-specific binding was defined with 100 nM CGRP.

Row | IC50 [nM] | SMILES
1 | 778 | CC(=O)c1ccc(NC(=O)N2CCC(=O)N3[C@@H]2CN(CCc2cccc(F)c2)C(=O)[C@@H]3CC[S+](C)[O-])cc1 (mixture of isomers) [Compound 42, (6S,9aS)-8-[2-(3-Fluoro-phenyl)-ethyl]-6-(2-methanesulfinyl-ethyl)-4,7-dioxo-hexahydro-pyrazino [1,2-a]pyrimidine-1-carboxylic acid (4-acetyl-phenyl)-amide]
2 | 244 | CCSCC1C(=O)N(CCc2cccc(F)c2)C[C@@H]2N(C(=O)Nc3ccc(C(C)=O)cc3)CCC(=O)N12 (stereo in doubt) [Compound 35, (6S,9aS)-6-Ethylsulfanylmethyl-8-[2-(3-fluoro-phenyl)-ethyl]-4,7-dioxo-hexahydro-pyrazino[1,2-a]pyrimidine-1-carboxylic acid (4-acetyl-phenyl)-amide]
3 | 704 | CSCC1C(=O)N(CCc2cccc(F)c2)C[C@@H]2N(C(=O)Nc3ccc(C(C)=O)cc3)CCC(=O)N12 (stereo in doubt) [Compound 37, (6S,9aS)-8-[2-(3-Fluoro-phenyl)-ethyl]-6-methylsulfanylmethyl-4,7-dioxo-hexahydro-pyrazino[1,2-a]pyrimidine-1-carboxylic acid (4-acetyl-phenyl)-amide]
4 | 237 | CC(=O)c1ccc(NC(=O)N2CCC(=O)N3C(CSCc4ccccc4)C(=O)N(CCc4cccc(F)c4)C[C@H]23)cc1 (stereo in doubt) [Compound 41, (6S,9aS)-6-Benzylsulfanylmethyl-8-[2-(3-fluoro-phenyl)-ethyl]-4,7-dioxo-hexahydro-pyrazino [1,2-a]pyrimidine-1-carboxylic acid (4-acetyl-phenyl)-amide]
5 | 3440 | CC(=O)c1ccc(NC(=O)N2CCC(=O)N3C(C[S+]([O-])Cc4ccccc4)C(=O)N(CCc4cccc(F)c4)C[C@H]23)cc1 (stereo in doubt) [Compound 44, (6S,9aS)-8-[2-(3-Fluoro-phenyl)-ethyl]-4,7-dioxo-6-phenylmethanesulfinylmethyl-hexahydro-pyrazino[1,2-a]pyrimidine-1-carboxylic acid (4-acetyl-phenyl)-amide]
6 | 1940 | CC(=O)c1ccc(NC(=O)N2CCC(=O)N3C(CS(=O)(=O)Cc4ccccc4)C(=O)N(CCc4cccc(F)c4)C[C@H]23)cc1 (stereo in doubt) [Compound 45, (6S,9aS)-8-[2-(3-Fluoro-phenyl)-ethyl]-4,7-dioxo-6-phenylmethanesulfonylmethyl-hexahydro-pyrazino[1,2-a]pyrimidine-1-carboxylic acid (4-acetyl-phenyl)-amide]
7 | 192 | CC[C@H](C)[C@H]1C(=O)N(CCc2cccc(F)c2)C[C@@H]2N(C(=O)Nc3ccc(C(C)=O)cc3)CCC(=O)N12 (stereo in doubt) [Compound 47, (6S,9aS)-6-(1R-Methyl-propyl)-8-[2-(3-fluoro-phenyl)-ethyl]-(S,S)-4,7-dioxo-hexahydro-pyrazino[1,2-a]pyrimidine-1-carboxylic acid (4-acetyl-phenyl)-amide]
8 | 80 | CC(=O)c1ccc(NC(=O)N2CCC(=O)N3[C@@H](C4CCCCC4)C(=O)N(CCc4ccccc4)C[C@H]23)cc1 [Compound 1, (6S,9aS)-6-Cyclohexyl-4,7-dioxo-8-phenethyl-hexahydro-pyrazino[1,2-a]pyrimidine-1-carboxylic acid (4-acetyl-phenyl)-amide]
9 | 417 | CS(=O)(=O)c1ccc(NC(=O)N2CCC(=O)N3[C@@H](C4CCCCC4)C(=O)N(CCc4ccccc4)C[C@H]23)cc1 [Compound 17, (6S,9aS)-6-Cyclohexyl-4,7-dioxo-8-phenethyl-hexahydro-pyrazino[1,2a]pyrimidine-1-carboxylic acid (4-methanesulfonyl-phenyl)-amide]
10 | 293 | C[S+]([O-])c1ccc(NC(=O)N2CCC(=O)N3[C@@H](C4CCCCC4)C(=O)N(CCc4ccccc4)C[C@H]23)cc1 (stereo partly drawn) [Compound 18, (6S,9aS)-6-Cyclohexyl-4,7-dioxo-8-phenethyl-hexahydro-pyrazino[1,2a]pyrimidine-1-carboxylic acid (4-methanesulfinyl-phenyl)-amide]
11 | 8000 | CSc1ccc(NC(=O)N2CCC(=O)N3[C@@H](C4CCCCC4)C(=O)N(CCc4ccccc4)C[C@H]23)cc1 [Compound 19, (6S,9aS)-6-Cyclohexyl-4,7-dioxo-8-phenethyl-hexahydro-pyrazino[1,2-a]pyrimidine-1-carboxylic acid (4-methylsulfanyl-phenyl)-amide]
12 | 907 | CC(=O)c1ccc(NC(=O)N2CCC(=O)N3[C@@H](C(C)C)C(=O)N(CCc4cccc(F)c4)C[C@H]23)cc1 [Compound 20, (6S,9aS)-8-[2-(3-Fluoro-phenyl)-ethyl]-6-isopropyl-4,7-dioxo-hexahydro-pyrazino[1,2-a]pyrimidine-1-carboxylic acid (4-acetyl-phenyl)-amide]
13 | 233 | CC[C@H](C)[C@H]1C(=O)N(CCc2cccc(F)c2)C[C@@H]2N(C(=O)Nc3ccc(C(C)=O)cc3)CCC(=O)N12 [Compound 21, (6S,9aS)-6-(1S-Methyl-propyl)-8-[2-(3-fluoro-phenyl)-ethyl]-4,7-dioxo-hexahydro-pyrazino[1,2-a]pyrimidine-1-carboxylic acid (4-acetyl-phenyl)-amide]
14 | 2190 | CC(=O)c1ccc(NC(=O)N2CCC(=O)N3[C@@H]2CN(CCc2cccc(F)c2)C(=O)[C@@H]3Cc2ccccc2)cc1 [Compound 22, (6S,9aS)-6-Benzyl-8-[2-(3-fluoro-phenyl)-ethyl]-4,7-dioxo-hexahydro-pyrazino[1,2-a]pyrimidine-1-carboxylic acid (4-acetyl-phenyl)-amide]
15 | 184 | CC(=O)c1ccc(NC(=O)N2CCC(=O)N3[C@@H]2CN(CCc2cccc(F)c2)C(=O)[C@@H]3CC(C)C)cc1 [Compound 23, (6S,9aS)-8-[2-(3-Fluoro-phenyl)-ethyl]-6-isobutyl-4,7-dioxo-hexahydro-pyrazino[1,2-a]pyrimidine-1-carboxylic acid (4-acetyl-phenyl)-amide]
16 | 213 | CSCC[C@H]1C(=O)N(CCc2cccc(F)c2)C[C@@H]2N(C(=O)Nc3ccc(C(C)=O)cc3)CCC(=O)N21 [Compound 24, (6S,9aS)-8-[2-(3-Fluoro-phenyl)-ethyl]-6-(2-methylsulfanyl-ethyl)-4,7-dioxo-hexahydro-pyrazino[1,2-a]pyrimidine-1-carboxylic acid (4-acetyl-phenyl)-amide]
17 | 30000 | CC(=O)c1ccc(NC(=O)N2CCC(=O)N3[C@@H]2CN(CCc2cccc(F)c2)C(=O)[C@@H]3C)cc1 [Compound 25, (6S,9aS)-8-[2-(3-Fluoro-phenyl)-ethyl]-6-methyl-4,7-dioxo-hexahydro-pyrazino[1,2-a]pyrimidine-1-carboxylic acid (4-acetyl-phenyl)-amide]
18 | 117 | CCCC[C@H]1C(=O)N(CCc2cccc(F)c2)C[C@@H]2N(C(=O)Nc3ccc(C(C)=O)cc3)CCC(=O)N21 [Compound 26, (6S,9aS)-6-Butyl-8-[2-(3-fluoro-phenyl)-ethyl]-4,7-dioxo-hexahydro-pyrazino[1,2-a]pyrimidine-1-carboxylic acid (4-acetyl-phenyl)-amide]
19 | 1330 | CC(=O)c1ccc(NC(=O)N2CCC(=O)N3[C@@H]2CN(CCc2cccc(F)c2)C(=O)[C@@H]3Cc2ccc([N+](=O)[O-])cc2)cc1 [Compound 27, (6S,9aS)-8-[2-(3-Fluoro-phenyl)-ethyl]-6-(4-nitro-benzyl)-4,7-dioxo-hexahydro-pyrazino[1,2-a]pyrimidine-1-carboxylic acid (4-acetyl-phenyl)-amide]
20 | 188 | CC(=O)c1ccc(NC(=O)N2CCC(=O)N3[C@@H]2CN(CCc2cccc(F)c2)C(=O)[C@@H]3CC2CCCCC2)cc1 [Compound 28, (6S,9aS)-6-Cyclohexylmethyl-8-[2-(3-fluoro-phenyl)-ethyl]-4,7-dioxo-hexahydro-pyrazino[1,2-a]pyrimidine-1-carboxylic acid (4-acetyl-phenyl)-amide]
21 | 2210 | CC(=O)c1ccc(NC(=O)N2CCC(=O)N3[C@@H]2CN(CCc2cccc(F)c2)C(=O)[C@@H]3CC(=O)OCc2ccccc2)cc1 [Compound 30, {1-(4-Acetyl-phenylcarbamoyl)-(6S,9aS)-8-[2-(3-fluoro-phenyl)-ethyl]-4,7-dioxo-octahydro-pyrazino [1,2-a]pyrimidin-6-yl}-acetic acid benzyl ester]
22 | 1050 | CC(=O)c1ccc(NC(=O)N2CCC(=O)N3[C@@H]2CN(CCc2cccc(F)c2)C(=O)[C@@H]3CCCCNC(=O)OCc2ccccc2)cc1 [Compound 31, (4-{1-(4-Acetyl-phenylcarbamoyl)-(6S,9aS)-8-[2-(3-fluoro-phenyl)-ethyl]-4,7-dioxo-octahydro-pyrazino[1,2-a]pyrimidin-6-yl}-butyl)-carbamic acid benzyl ester]
